Counter-ions that a name gives are not always drawn. Like-named read-outs stand apart in the source and are kept apart here.
Key:
Test in all cases: Cell growth inhibition, Sulforhodamine B assay (SRB)
Assay type in all cases: cell-based
[1] = test system: A549 lung cancer cell line; details: Homo sapiens, read-out: Cell Line GI50 Range A-549
Protocol: (§1) The cells were cultured for 5 days before the Sulforhodamine B assay (SRB) was performed to determine the compound's cell growth inhibition activity.
(§2) Sulforhodamine B (purchased from Sigma, Oakville, ON, Canada) is a water-soluble dye that binds to the basic amino acids of the cellular proteins. Thus, colorimetric measurement of the bound dye provides an estimate of the total protein mass that is related to the cell number. the cells are fixed in situ by gently aspirating off the culture media and adding 50 μl ice cold 10% Trichloroacetic Acid (TCA) per well and incubate at 4° C. for 30-60 min, The plates are washed with water five times and allowed to air dry for 5 min. […] Following staining, plates are washed four times with 1% acetic acid to remove unbound dye and then allowed to air dry for 5 min. […] Absorbance is read at 570 nm.
(§3) The percentage (%) of relative growth inhibition was calculated by comparing to DMSO treated only cells (100%). GI50's were determined for compounds with cytotoxic activity. The GI50 was calculated using GraphPad PRISM software (GraphPad Software, Inc., San Diego, Calif., USA).

[2] = test system: HCC1954 basal breast cancer cell line; details: Homo sapiens
Protocol: as §1, §2, §3

[3] = test system: SW620 colon cancer cell line; details: Homo sapiens, SW-620, 120 h
Protocol: as §1, §2, §3

[4] = test system: MDA-MB-468 basal breast cancer cell line; details: Homo sapiens, 5 days culture, SRB
Protocol: as §1, §2, §3

[5] = test system: MCF-7 luminal breast cancer cell line; details: Homo sapiens, MCF7, 120 h
Protocol: as §1, §2, §3

[6] = 120 h, A549 lung cancer cell line, 5 days culture, SRB
[7] = HCC1954, 120 h, HCC1954 basal breast cancer cell line, 5 days culture, SRB, read-out: Cell Line GI50 Range HCC-1954
[8] = SW620 colon cancer cell line, 5 days culture, SRB, read-out: Cell Line GI50 Range SW-620
[9] = 120 h, MDA-MB-468 basal breast cancer cell line, read-out: Cell Line GI50 Range MDA-MB-468
[10] = MCF-7 luminal breast cancer cell line, 5 days culture, SRB, read-out: Cell Line GI50 Range MCF-7
[11] = 120 h, HCC1954 basal breast cancer cell line, 5 days culture, SRB, read-out: Cell Line GI50 Range HCC-1954
[12] = HCC1954, 120 h, read-out: Cell Line GI50 Range HCC-1954
[13] = read-out: Cell Line GI50 Range MCF-7, MCF-7 luminal breast cancer cell line, 5 days culture, SRB
[14] = read-out: Cell Line GI50 Range SW-620, SW620 colon cancer cell line, 5 days culture, SRB

SMILES	GI50 [1, 6] [µM]	GI50 [3, 8] [µM]	GI50 [4, 9] [µM]	GI50 [5, 10] [µM]	GI50 [2, 11] [µM]	other results
COc1ccc2c(c1)[C@@]1(C[C@@H]1c1ccc3c(-c4ccc(N5CCN(C)CC5)cc4)n[nH]c3c1)C(=O)N2 (racemic) [Example A38, (1R*,2S*)-5′-Methoxy-2-(3-(4-(4-methylpiperazin-1-yl)phenyl)-1H-indazol-6-yl)spiro[cyclopropane-1,3′-indolin]-2′-one]						GI50 ([1]; A549, 120 h): < 0.1 µM; GI50 ([2]; HCC1954, 120 h, read-out: Cell Line GI50 Range HCC-1954, HCC1954 basal breast cancer cell line, 5 days culture, SRB): > 10 µM; GI50 ([3]; read-out: Cell Line GI50 Range SW-620): 0.1 to 1 µM; GI50 ([4]; MDA-MB-468, 120 h, read-out: Cell Line GI50 Range MDA-MB-468, MDA-MB-468 basal breast cancer cell line): < 0.1 µM; GI50 ([5]; read-out: Cell Line GI50 Range MCF-7): 0.1 to 1 µM
COc1ccc2c(c1)[C@@]1(C[C@@H]1c1ccc3c(-c4cccc(N5CCNCC5)c4)n[nH]c3c1)C(=O)N2 (racemic) [Example A47, (1R*,2S*)-5′-methoxy-2-(3-(3-(piperazin-1-yl)phenyl)-1H-indazol-6-yl)spiro[cyclopropane-1,3′-indolin]-2′-one 2,2,2-trifluoroacetate]	1 to 10	1 to 10	1 to 10	1 to 10		GI50 [2, 7]: 1 to 10 µM
COc1ccc2c(c1)[C@]1(C[C@H]1c1ccc3c(/C=C/c4ccc(CN5CCCCC5)nc4)n[nH]c3c1)C(=O)N2 (racemic) [Example A62, (1R,2S)-(E)-5′-methoxy-2-(3-((E)-2-(6-(piperidin-ylmethyl)pyridin-3-yl)vinyl)-1H-indazol-6-yl)spiro[cyclopropane-1,3′-indolin]-2′-one 2,2,2-trifluoroacetate salt]						GI50 [2, 12]: 1 to 10 µM
COc1ccc2c(c1)[C@@]1(C[C@@H]1c1ccc3c(-c4ccc(N5CCN(C)CC5)cc4)n[nH]c3c1)C(=O)N2C (racemic) [Example A100, (1R*,2S*)-5′-methoxy-1′-methyl-2-(3-(4-(4-methylpiperazin-1-yl)phenyl)-1H-indazol-6-yl)spiro[cyclopropane-1,3′-indolin]-2′-one 2,2,2-trifluoroacetate]	< 0.1	< 0.1	0.1 to 1	0.1 to 1	1 to 10	
Cc1ccc2c(c1)[C@@]1(C[C@@H]1c1ccc3c(-c4ccc(N5CCN(C)CC5)cc4)n[nH]c3c1)C(=O)N2 (racemic) [Example A173, (1R*,2S*)-5′-methyl-2-(3-(4-(4-methylpiperazin-1-yl)phenyl)-1H-indazol-6-yl)spiro[cyclopropane-1,3′-indolin]-2′-one 2,2,2-trifluoroacetate]	0.1 to 1	0.1 to 1	0.1 to 1	0.1 to 1	0.1 to 1	
O=C1Nc2ccc(F)cc2[C@@]12C[C@@H]2c1ccc2c(/C=C/c3ccc(CN4CCOCC4)cc3)n[nH]c2c1 (racemic) [Example A219, (1R*,2S*)-(E)-5′-fluoro-2-(3-(4-(morpholinomethyl)styryl-1H-indazol-6-yl)spiro[cyclopropane-1,3′-indolin]-2′-one 2,2,2-trifluoroacetate]						GI50 [2, 12]: 0.1 to 1 µM; GI50 [5, 13]: 0.1 to 1 µM
COc1ccc2c(c1)[C@]1(CC1c1ccc3c(/C=C/c4ccc(CN5C[C@@H](C)O[C@@H](C)C5)cc4)n[nH]c3c1)C(=O)N2 (relative stereo) [Example A186, (1R*,2S*)-(E)-2-(3-(4-trans-2,6-dimethylmorpholino)methyl)styryl)-1H-indazol-6-yl)-5′-methoxspiro[cyclopropane-1,3′-indolin]-2′-one 2,2,2-trifluoroacetate]					1 to 10	
CCN(CC)Cc1ccc(/C=C/c2n[nH]c3cc([C@@H]4C[C@@]45C(=O)Nc4ccccc45)ccc23)cc1 (relative stereo) [Example A211, (1R*,2S*)-(E)-2-(3-(4-((diethylamino)methyl)styryl)-1H-indazol-6-yl)spiro-[cyclopropane-1,3′-indolin]-2′-one 2,2,2-trifluoroacetate]						GI50 [3, 14]: 0.1 to 1 µM; GI50 [5, 13]: 0.1 to 1 µM
CN(C)Cc1ccc(/C=C/c2n[nH]c3cc([C@@H]4C[C@@]45C(=O)Nc4ccccc45)ccc23)cc1 [Example A24, (1R,2S)-(E)-2-(3-(4-((dimethylamino)methyl)styryl)-1H-indazol-6-yl)spiro[cyclopropane-1,3′-indolin]-2′-one 2,2,2-trifluoroacetate]						GI50 [3, 14]: < 0.1 µM

Second part, led by results:

GI50 [1, 6] [µM]	GI50 [3, 8] [µM]	GI50 [4, 9] [µM]	GI50 [5, 10] [µM]	GI50 [2, 11] [µM]	SMILES	other results
1 to 10	1 to 10	0.1 to 1	1 to 10		O=C1Nc2ncc(Br)cc2[C@@]12C[C@@H]2c1ccc2c(/C=C/c3cccnc3)n[nH]c2c1 (racemic) [Example A27, (1R*,2S*)-5′-bromo-2-(3-((E)-2-(pyridin-3-yl)vinyl)-1H-indazol-6-yl)spiro[cyclopropane-1,3′-pyrrolo[2,3-b]pyridin]-2′(1′H)-one]	GI50 [2, 7]: 1 to 10 µM
1 to 10			1 to 10		O=C1Nc2ccccc2[C@@]12C[C@@H]2c1ccc2c(/C=C/c3cccnc3)n[nH]c2c1 (racemic) [Example A28, (1R*,2S*)-2-(3-((E)-2-(pyridin-3-yl)vinyl)-1H-indazol-6-yl)spiro-[cyclopropane-1,3′-indolin]-2′-one]	GI50 [2, 7]: 1 to 10 µM
< 0.1	< 0.1	0.1 to 1	> 10	> 10	COc1ccc2c(c1)[C@@]1(C[C@@H]1c1ccc3c(-c4ccnc(N5CCN(C)CC5)c4)n[nH]c3c1)C(=O)N2 (racemic) [Example A37, (1R*,2S*)-5′-Methoxy-2-(3-(2-(4-methylpiperazin-1-yl)pyridin-4-yl)-1H-indazol-6-yl)spiro[cyclopropane-1,3′-indolin]-2′-one]	
1 to 10	1 to 10	1 to 10	1 to 10	> 10	COc1ccc2c(c1)[C@@]1(C[C@@H]1c1ccc3c(-c4cccc(CO)c4)n[nH]c3c1)C(=O)N2 (racemic) [Example A43, (1R*,2S*)-2-(3-(3-(hydroxymethyl)phenyl)-1H-indazol-6-yl)-5′-methoxy spiro[cyclopropane-1,3′-indolin]-2′-one 2,2,2-trifluoroacetate]	
0.1 to 1	1 to 10	0.1 to 1	1 to 10	> 10	COc1ccc2c(c1)[C@@]1(C[C@@H]1c1ccc3c(-c4ccc(CO)cc4)n[nH]c3c1)C(=O)N2 (racemic) [Example A45, (1R*,2S*)-2-(3-(4-(hydroxymethyl)phenyl)-1H-indazol-6-yl)-5′-methoxyspiro[cyclopropane-1,3′-indolin]-2′-one 2,2,2-trifluoroacetate]	
< 0.1	0.1 to 1	< 0.1	< 0.1		CN1C(=O)[C@@]2(C[C@H]2c2ccc3c(/C=C/c4ccc(CN5CCOCC5)cc4)n[nH]c3c2)c2ccccc21 (racemic) [Example A87, (1R*,2S*)-(E)-1′-methyl-2-(3-(4-(morpholinomethyl)styryl)-1H-indazol-6-yl)spiro[cyclopropane-1,3′-indolin]-2′-one 2,2,2-trifluoroacetate]	GI50 [2, 7]: 1 to 10 µM
> 10	> 10	1 to 10	1 to 10	> 10	NS(=O)(=O)c1cccc(-c2n[nH]c3cc([C@@H]4C[C@@]45C(=O)Nc4ccccc45)ccc23)c1 (racemic) [Example A130, 3-(6-((1R*,2S*)-2′-oxospiro[cyclopropane-1,3′-indoline]-2-yl)-1H-indazol-3-yl)benzenesulfonamide]	
	0.1 to 1		< 0.1	> 10	COc1ccc2c(c1)[C@]1(C[C@H]1c1ccc3c(/C=C/c4cccc(CN5CCOCC5)c4)n[nH]c3c1)C(=O)N2 (racemic) [Example A133, (1R*,2S*)-5′-methoxy-2-(3-(3-(morpholinomethyl)styryl)-1H-indazol-6-yl)spiro[cyclopropane-1,3′-indolin]-2′-one 2,2,2-trifluoroacetate]	
	0.1 to 1				COc1ccc2c(c1)[C@]1(C[C@H]1c1ccc3c(/C=C/c4cccc(CN(C)C)c4)n[nH]c3c1)C(=O)N2 (racemic) [Example A135, (1R*,2S*)-2-(3-(3-((dimethylamino)methyl)styryl)-1H-indazol-6-yl)-5′-methoxyspiro[cyclopropane-1,3′-indolin]-2′-one 2,2,2-trifluoroacetate]	GI50 [2, 7]: > 10 µM

Reference: patent US8481525B2, “Kinase inhibitors and method of treating cancer with same” (University of Health Network, priority 2009, dated 2013)
